Results published in US20060069110A1, “Substituted heterocyclic compounds and methods of use” (priority 2004, published 2006).

Each compound was assayed on THP1 cells (LPS induced TNF release) (assay: Lipopolysaccharide-Activated THP1 Cell TNF Production Assay). Details: Homo sapiens, THP-1, 3 h, read-out: IC50 values in the THP1 cell assay (LPS induced TNF release).
Assay type: cell-based
Summary of the method: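 THP1 cells at 1E6/mL were treated with 3-fold serial compound dilutions and LPS (1 μg/mL stock) for 3 h at 37 °C. Secreted TNF-α was quantified by electrochemiluminescent sandwich immunoassay. Percent of DMSO control versus concentration was fitted to a 4-parameter equation.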
For `Cc1nccn1-c1cccc(C[C@H](C)Nc2nccc(N(C)c3ccnc(-c4ccccc4)n3)n2)c1` [Example 117, N^4-Methyl-N^2-((S)-1-(3-(2-methyl-1H-imidazol-1-yl)phenyl)propan-2-yl)-N^4-(2-phenylpyrimidin-4-yl)pyrimidine-2,4-diamine], the IC50 was no more than 20 µM.

Same assay, conditions: Homo sapiens, THP-1; THP1 cells, bacterial LPS, secreted TNF-α after 3 h at 37° C.; read-out: IC50 values in the THP1 cell assay (LPS induced TNF release)
`C[C@@H](Cc1cccc(CN)c1)Nc1nccc(N(C)c2ccnc(-c3cccc(F)c3)n2)n1` [Example 85, N^2-((S)-1-(3-(Aminomethyl)phenyl)propan-2-yl)-N^4-(2-(3-fluorophenyl)pyrimidin-4-yl)-N^4-methylpyrimidine-2,4-diamine] gave an IC50 of no more than 20 µM.
`C[C@@H](Cc1cccc(CN)c1)Nc1nccc(N(C)c2ccnc(-c3ccc(F)cc3)n2)n1` [Example 87, (S)-N^2-(1-(3-(Aminomethyl)phenyl)propan-2-yl)-N^4-(2-(4-fluorophenyl)pyrimidin-4-yl)-N^4-methylpyrimidine-2,4-diamine] was tested, and the IC50 was no more than 20 µM.
`C[C@@H](Cc1cccc(CN)c1)Nc1nccc(N(C)c2ccnc(-c3ccccc3)n2)n1` [Example 89, (S)-N^2-(1-(3-(Aminomethyl)phenyl)propan-2-yl)-N^4-methyl-N^4-(2-phenylpyrimidin-4-yl)pyrimidine-2,4-diamine] was tested, and the IC50 was no more than 20 µM.
`C[C@@H](Cc1cccc(CN)c1)Nc1nccc(N(C)c2ccnc(-c3ccc(F)cc3F)n2)n1` [Example 91, N^2-((S)-1-(3-(Aminomethyl)phenyl)propan-2-yl)-N^4-(2-(2,4-difluorophenyl)-pyrimidin-4-yl)-N^4-methylpyrimidine-2,4-diamine] showed an IC50 of no more than 20 µM.
`CN(c1ccnc(N[C@H]2CC[C@H](N)CC2)n1)c1ccnc(-c2ccccc2F)n1` [Example 93, N^2-(4-Aminocyclohexyl)-N^4-(2-(2-fluorophenyl)pyrimidin-4-yl)-N^4-methyl-pyrimidine-2,4-diamine] gave an IC50 of no more than 20 µM.
`CN(c1ccnc(NCCN2CCOCC2)n1)c1ccnc(-c2ccccc2)n1` [Example 96, N^4-Methyl-N^2-(2-morpholinoethyl)-N^4-(2-phenylpyrimidin-4-yl)pyrimidine-2,4-diamine] gave an IC50 of no more than 20 µM.
`CCOC(=O)c1cnc(-c2ccccc2)nc1Nc1ccnc(NCCc2ccccn2)n1` [Example 98, Ethyl 2-phenyl-4-(2-(2-(pyridin-2-yl)ethylamino)pyrimidin-4-ylamino)pyrimidine-5-carboxylate] showed an IC50 of no more than 20 µM.
`CNC(=O)c1cnc(-c2ccccc2)nc1Nc1ccnc(NCCc2ccccn2)n1` [Example 99, N-Methyl-2-phenyl-4-(2-(2-(pyridin-2-yl)ethylamino)pyrimidin-4-ylamino)-pyrimidine-5-carboxamide] showed an IC50 of no more than 20 µM.
`CNC(=O)c1cnc(-c2ccccc2)nc1Nc1ccnc(NCCc2cccnc2)n1` [Example 101, N-Methyl-2-phenyl-4-(2-(2-(pyridin-3-yl)ethylamino)pyrimidin-4-ylamino)-pyrimidine-5-carboxamide] showed an IC50 of no more than 20 µM.
In the case of `COc1ccccc1-c1nccc(N(C)c2ccnc(NCCc3cccnc3)n2)n1` [Example 104, N^4-(2-(2-Methoxyphenyl)pyrimidin-4-yl)-N^4-methyl-N^2-(2-(pyridin-3-yl)ethyl)-pyrimidine-2,4-diamine], the IC50 is reported as no more than 20 µM.
For `Cc1ccccc1-c1nccc(N(C)c2ccnc(NCCc3cccnc3)n2)n1` [Example 105, N^4-Methyl-N^2-(2-(pyridin-3-yl)ethyl)-N^4-(2-o-tolylpyrimidin-4-yl)pyrimidine-2,4-diamine], the IC50 was no more than 20 µM.
`CN(c1ccnc(NCCc2ccccc2)n1)c1ccnc(-c2ccccc2)n1` [Example 106, N^4-Methyl-N^2-phenethyl-N^4-(2-phenylpyrimidin-4-yl)pyrimidine-2,4-diamine] gave an IC50 of no more than 20 µM.
Compound `CN(c1ccnc(NCCc2ccccn2)n1)c1ccnc(-c2ccccc2)n1` [Example 107, N^4-Methyl-N^4-(2-phenylpyrimidin-4-yl)-N^2-(2-(pyridin-2-yl)ethyl)pyrimidine-2,4-diamine] has an IC50 of no more than 20 µM.
In the case of `CN(c1ccnc(NCC(c2cccnc2)N2CCOCC2)n1)c1ccnc(-c2ccccc2)n1` (stereo not drawn) [Example 108, N^4-Methyl-N^2-(2-morpholino-2-(pyridin-3-yl)ethyl)-N^4-(2-phenylpyrimidin-4-yl)pyrimidine-2,4-diamine], the IC50 is reported as no more than 20 µM.
With `CN(c1ccnc(NCC(c2cccnc2)N(C)C)n1)c1ccnc(-c2ccccc2)n1` (stereo not drawn) [Example 109, N^2-(2-(Dimethylamino)-2-(pyridin-3-yl)ethyl)-N^4-methyl-N^4-(2-phenylpyrimidin-4-yl)pyrimidine-2,4-diamine] the IC50 was no more than 20 µM.
With `CN(c1ccnc(NC[C@H](O)c2ccccc2)n1)c1ccnc(-c2ccccc2)n1` [Example 110, (R)-2-(4-(Methyl(2-phenylpyrimidin-4-yl)amino)pyrimidin-2-ylamino)-1-phenyl-ethanol] the IC50 was no more than 20 µM.
For `CN(c1ccnc(NC[C@@H](O)c2ccccc2)n1)c1ccnc(-c2ccccc2)n1` [Example 111, (S)-2-(4-(Methyl(2-phenylpyrimidin-4-yl)amino)pyrimidin-2-ylamino)-1-phenyl-ethanol], the IC50 was no more than 20 µM.
For `CN(c1ccnc(NC[C@H](N)c2ccccc2)n1)c1ccnc(-c2ccccc2)n1` [Example 112], the IC50 was no more than 20 µM.
Work on `CN(c1ccnc(NCC(O)c2ccccn2)n1)c1ccnc(-c2ccccc2)n1` (stereo not drawn) [Example 113] yielded an IC50 of no more than 20 µM.
`CN(c1ccnc(NCCc2ccc3c(n2)NCCC3)n1)c1ccnc(-c2ccccc2)n1` [Example 114, N^4-Methyl-N^4-(2-phenylpyrimidin-4-yl)-N^2-(2-(5,6,7,8-tetrahydro-1,8-naphthyridin-2-yl)ethyl)pyrimidine-2,4-diamine] showed an IC50 of no more than 20 µM.
`CC(=O)N1CCC(CNc2nccc(N(C)c3ccnc(-c4ccccc4)n3)n2)CC1` [Example 115, 1-(4-((4-(Methyl(2-phenylpyrimidin-4-yl)amino)pyrimidin-2-ylamino)methyl)-piperidin-1-yl)ethanone] showed an IC50 of no more than 20 µM.
With `C[C@@H](Cc1cccc(-n2ccnc2)c1)Nc1nccc(N(C)c2ccnc(-c3ccccc3)n2)n1` [Example 116, N^2-((S)-1-(3-(1 H-Imidazol-1-yl)phenyl)propan-2-yl)-N^4-methyl-N^4-(2-phenyl-pyrimidin-4-yl)pyrimidine-2,4-diamine] the IC50 was no more than 20 µM.
In the case of `CN(c1ccnc(NCCc2cccc(-c3ccccn3)c2)n1)c1ccnc(-c2ccccc2)n1` [Example 118, N^2-(3-(Pyridin-2-yl)phenethyl)-N^4-methyl-N^4-(2-phenylpyrimidin-4-yl)pyrimidine-2,4-diamine], the IC50 is reported as no more than 20 µM.
For `CC(Cc1cccc(CO)c1)Nc1nccc(N(C)c2cc(N)nc(-c3ccccc3)n2)n1` (stereo not drawn) [Example 119, (3-(2-(4-((6-Amino-2-phenylpyrimidin-4-yl)(methyl)amino)pyrimidin-2-ylamino) -propyl)phenyl)methanol], the IC50 was no more than 20 µM.
In the case of `CN(c1ccnc(NCCc2ccccn2)n1)c1cc(O)nc(-c2ccccc2)n1` [Example 120, 6-(Methyl(2-(2-(pyridin-2-yl)ethylamino)pyrimidin-4-yl)amino)-2-phenylpyrimidin-4-ol], the IC50 is reported as no more than 20 µM.
In the case of `COc1nc(-c2ccccc2)nc(N(C)c2ccnc(N[C@@H](C)Cc3cccc(CN)c3)n2)n1` [Example 121, (S)-N^2-(1-(3-(Aminomethyl)phenyl)propan-2-yl)-N^4-(4-methoxy-6-phenyl-1,3,5-triazin-2-yl)-N^4-methylpyrimidine-2,4-diamine], the IC50 is reported as no more than 20 µM.
In the case of `C[C@@H](Cc1cccc(CN)c1)Nc1nccc(N(C)c2cncc(-c3ccccc3)n2)n1` [Example 122, (S)-N^2-(1-(3-(Aminomethyl)phenyl)propan-2-yl)-N^4-methyl-N^4-(6-phenylpyrazin-2-yl)pyrimidine-2,4-diamine], the IC50 is reported as no more than 20 µM.
Work on `CN(c1cncc(-c2ccccc2)n1)c1ccnc(NCCc2ccccc2Cl)n1` [Example 123, N^2-(2-Chlorophenethyl)-N^4-methyl-N^4-(6-phenylpyrazin-2-yl)pyrimidine-2,4-diamine] yielded an IC50 of no more than 20 µM.
For `CN(c1cncc(-c2ccccc2)n1)c1ccnc(N[C@H]2CC[C@H](N)CC2)n1` [Example 124, N^2-((1r, 4r)-4-Aminocyclohexyl)-N^4-methyl-N^4-(6-phenylpyrazine-2-yl)pyrimidine-2,4-diamine], the IC50 was no more than 20 µM.
`COc1nc(-c2ccccc2)nc(N(C)c2ccnc(N[C@@H](C)Cc3cccc(CNC(=O)[C@H](C)N)c3)n2)n1` [Example 125, (S)-N-((S)-3-((S)-2-(4-((4-Methoxy-6-phenyl-1,3,5-triazin-2-yl)(methyl)amino)-pyrimidin-2-ylamino)propyl)benzyl)-2-aminopropanamide] was tested, and the IC50 was no more than 20 µM.
Compound `COc1nc(-c2ccccc2)nc(N(C)c2ccnc(N[C@@H](C)Cc3cccc([C@@H](C)N)c3)n2)n1` [Example 126, N^2-((S)-1-(3-((R)-1-Aminoethyl)phenyl)propan-2-yl)-N^4-(4-methoxy-6-phenyl-1,3,5-triazin-2-yl)-N^4-methylpyrimidine-2,4-diamine] has an IC50 of no more than 20 µM.
`CN(c1cccc(-c2ccc(C(F)(F)F)cc2)n1)c1ccnc(NCCc2ccccc2)n1` [Example 128, N^4-Methyl-N^2-phenethyl-N^4-(6-(4-(trifluoromethyl)phenyl)pyridin-2-yl)-pyrimidine-2,4-diamine] was tested, and the IC50 was no more than 20 µM.
`CN(c1cccc(-c2cccc(C(F)(F)F)c2)n1)c1ccnc(NCCc2ccccc2)n1` [Example 129, N^4-Methyl-N^2-phenethyl-N^4-(6-(3-(trifluoromethyl)phenyl)pyridin-2-yl)-pyrimidine-2,4-diamine] gave an IC50 of no more than 20 µM.
`CN(c1cccc(-c2ccccc2C(F)(F)F)n1)c1ccnc(NCCc2ccccc2)n1` [Example 130, N^4-Methyl-N^2-phenethyl-N^4-(6-(2-(trifluoromethyl)phenyl)pyridin-2-yl)-pyrimidine-2,4-diamine] gave an IC50 of no more than 20 µM.
In the case of `CN(c1cccc(-c2ccc(Cl)cc2)n1)c1ccnc(NCCc2ccccc2)n1` [Example 134, N^4-(6-(4-Chlorophenyl)pyridin-2-yl)-N^4-methyl-N^2-phenethylpyrimidine-2,4-diamine], the IC50 is reported as no more than 20 µM.
